Experimental findings from ChEMBL document CHEMBL1201862, “PubChem BioAssay data set” (2004) are described below.

Molecules are shown by their SMILES.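 Assay format: 96-well plates, 48-hour exposure. Abbreviation: GI50, concentration required for 50% inhibition of growth.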 Active and inactive are the calls of the source. Rule as the data show it: active = GI50 up to about 1.1 µM and inactive = higher. Some results are limits rather than exact numbers.

What all share (experiment): NCI anticancer screen, dose series, 48 h
In assay [1] the test system is UO-31.
In assay [2] the test system is IGROV-1.
Assay [3] concerns EKVX.
For assay [4], the system named is SK-MEL-5.
In assay [5] the test system is HOP-62.
Assay [6] concerns T47D.
For assay [7], the system named is A549.
Assay [8] relates to CAKI-1.
The subject of assay [9] is HCC 2998.
Assay [10] has as its system LOX IMVI.
Assay [11] has as its system NCI-H522.
For assay [12], the system named is NCI-H226.
For assay [13], the system named is HCT-15.
For assay [14], the system named is COLO 205.
For assay [15], the system named is K562.
The test system of assay [16] is TK-10.
In assay [17] the test system is BT-549.
Assay [18] has as its system SK-MEL-28.
Assay [19] has as its system HOP-92.
The test system of assay [20] is RPMI-8226.

Regarding `CC1(C)[C@@H]2CC[C@]1(C)[C@H](OC(=O)/C=C/c1ccccc1)C2`, the GI50 is 19.2 µM (inactive) in assay [1]; 27.7 µM (inactive) in assay [2]; 19.9 µM (inactive) in [3]; 16.7 µM (inactive) in [4]; 30.2 µM (inactive) in [5]; 15.9 µM (inactive) in [6]. The GI50 in [7] is 30.8 µM (inactive); in assay [8], 20.2 µM (inactive); in [9] it was 17 µM (inactive); in assay [10], 21.3 µM (inactive); in assay [11], 14.6 µM (inactive); in assay [12] it was 20.8 µM (inactive). Further, the GI50 is 17.6 µM in [13]; 17.1 µM (inactive) in assay [14]; 19.9 µM (inactive) in assay [15]; 36.9 µM (inactive) in [16]; 21.9 µM (inactive) in assay [17]; 19 µM (inactive) in assay [18].

In the case of `CNC(=O)c1ccc(C(=O)NCCCCCN(O)C(=O)CCC(=O)NCCCCCN(O)C(=O)CCC(=O)NCCCCCN(O)C(C)=O)c(O)c1O`, the GI50 was 24.3 µM (inactive) in [1]; 60.4 µM (inactive) in assay [2]; 33.7 µM (inactive) in assay [4]; 21.4 µM (inactive) in [5]; 54.7 µM (inactive) in assay [7]; 37.4 µM (inactive) in [19]. In addition, the GI50 in assay [8] is 55.3 µM (inactive); in [9], > 100 µM (inactive); in [20], 38.5 µM (inactive); in assay [10], 18.3 µM (inactive); in assay [11], 60.1 µM (inactive); in assay [12] it was > 100 µM (inactive). The GI50 is 21.9 µM in assay [13]; 27.1 µM (inactive) in [14]; 65 µM (inactive) in [15]; 78.9 µM (inactive) in assay [16]; 56.6 µM (inactive) in assay [17]; 42 µM (inactive) in assay [18].

As to `CCOC(=O)c1ccc(C(=O)/C(C(C)=O)=C2\CCCN2C)n1C`, the GI50 in [1] was > 100 µM (inactive); in assay [2], > 100 µM (inactive); in assay [3], 18.2 µM (inactive); in [4], 42.9 µM (inactive); in assay [5] it was 57.9 µM (inactive); in [6], 15.8 µM (inactive). The GI50 is > 100 µM (inactive) in assay [7]; > 100 µM (inactive) in [8]; > 100 µM (inactive) in [9]; 61.2 µM (inactive) in assay [20]; 53.8 µM (inactive) in assay [10]; 57.5 µM (inactive) in assay [11]. The GI50 in [12] was > 100 µM (inactive); in assay [13] it was 68.7 µM; in assay [14], > 100 µM (inactive); in assay [15], 62.7 µM (inactive); in assay [16], > 100 µM (inactive); in assay [17], > 100 µM (inactive). Besides, the GI50 in assay [18] is > 100 µM (inactive).

For the molecule `CC1C2=C(CCCC2=O)N(c2ccc(Cl)cc2)C2=C1C(=O)CCC2`, the GI50 is 46.2 µM (inactive) in [1]; > 100 µM (inactive) in assay [2]; 57.7 µM (inactive) in assay [3]; 40.6 µM (inactive) in [4]; 88.5 µM (inactive) in [7]; 42.3 µM (inactive) in assay [19]. The GI50 in assay [8] is > 100 µM (inactive); in assay [9], > 100 µM (inactive); in assay [20], 67 µM (inactive); in assay [10], 68.5 µM (inactive); in assay [12], > 100 µM (inactive); in assay [13], 70 µM. Moreover, the GI50 was 29.9 µM (inactive) in assay [15], 86.7 µM (inactive) in assay [16], 73.6 µM (inactive) in assay [17] and > 100 µM (inactive) in assay [18].

As to `CCOC(OCC)N1C(=O)C2(C(OCC)OCC)CC3C(OC(=O)N3N)c3cccc1c32` (centres undefined), the GI50 in assay [1], in [2], in assay [3], in [4], in assay [5] and in assay [6] was > 100 µM (inactive) in each case. The GI50 in [7], in assay [8], in assay [9], in [20], in assay [10] and in assay [12] was > 100 µM (inactive) each time. Moreover, the GI50 is over 100 µM in assay [13]; > 100 µM (inactive) in assay [14]; > 10 µM (inactive) in [15]; > 100 µM (inactive) in assay [16]; > 100 µM (inactive) in [17]; > 100 µM (inactive) in assay [18].

Consider `CC1C(C)(C)C23CC12C1(OCCO1)C3Br` (centres undefined), for which the GI50 in assay [1] is 11.2 µM (inactive); in assay [2], > 100 µM (inactive); in assay [3] it was > 100 µM (inactive); in assay [4] it was > 100 µM (inactive); in assay [5], > 100 µM (inactive); in [7], > 100 µM (inactive). Moreover, the GI50 in assay [8] is > 100 µM (inactive); in [9], > 100 µM (inactive); in [20], > 100 µM (inactive); in assay [10], > 100 µM (inactive); in assay [12] it was > 100 µM (inactive); in assay [13], over 100 µM. The GI50 in [14], in assay [15], in assay [16], in assay [17] and in assay [18] was > 100 µM (inactive) each time.

As for `CCNC(=O)c1c(O)nc2ccccc2c1O`, the GI50 in [1] is 73.5 µM (inactive); in [2] it was 39.4 µM (inactive); in assay [3], 32.3 µM (inactive); in assay [4] it was 43.5 µM (inactive); in [5], 64.9 µM (inactive); in assay [7], 55.6 µM (inactive). Besides, the GI50 is 75.3 µM (inactive) in [19]; 55.5 µM (inactive) in assay [8]; > 100 µM (inactive) in [9]; 17.6 µM (inactive) in assay [20]; 51.5 µM (inactive) in assay [10]; 69.2 µM (inactive) in assay [11]. In addition, the GI50 in assay [12] is > 100 µM (inactive); in [13] it was 29 µM; in assay [14] it was 56.9 µM (inactive); in assay [15], 39.8 µM (inactive); in assay [16], 50.6 µM (inactive); in assay [17], 78.2 µM (inactive). In assay [18], the GI50 is > 100 µM (inactive).

For `CCCCCCCC(=O)N1C2CC3CCC2(CS1(=O)=O)C3(C)C` (centres undefined), the GI50 in assay [1] is 22.6 µM (inactive); in assay [2] it was 43.2 µM (inactive); in [3] it was 37.4 µM (inactive); in assay [4], 18.2 µM (inactive); in assay [5], 20.8 µM (inactive); in [7], 27 µM (inactive). Moreover, the GI50 in assay [19] was 20.6 µM (inactive); in [8], 20.2 µM (inactive); in [9] it was 24.7 µM (inactive); in assay [20], 19.7 µM (inactive); in assay [11], 19.4 µM (inactive); in [13], 13.1 µM. Also, the GI50 in assay [14] was 21.8 µM (inactive); in assay [16] it was 33.6 µM (inactive); in assay [17] it was 26.4 µM (inactive); in assay [18] it was 14.4 µM (inactive).

As to `CC(=O)c1cc(CC2Cc3cc4c(cc3C2=O)CCC4)cc2c1CCC2` (centres undefined), the GI50 is 49.5 µM (inactive) in assay [1]; > 100 µM (inactive) in [2]; 37.8 µM (inactive) in assay [3]; 14 µM (inactive) in assay [4]; > 100 µM (inactive) in [5]; 15.1 µM (inactive) in assay [6]. In addition, the GI50 was 29.8 µM (inactive) in assay [7]; 90.2 µM (inactive) in assay [8]; 46 µM (inactive) in assay [9]; 10.7 µM (inactive) in assay [20]; 24 µM (inactive) in assay [10]; 36.9 µM (inactive) in assay [11]. For the same molecule, the GI50 in assay [12] was 44.9 µM (inactive); in [13], 44.1 µM; in [14], 24.8 µM (inactive); in assay [15], 12.5 µM (inactive); in [16], 38.5 µM (inactive); in assay [17] it was 15.4 µM (inactive). The GI50 in assay [18] was > 100 µM (inactive).

In the case of `Cc1ccc(C(=O)O)c(/C=C2\Cc3cc(C)cc(C)c3C2=O)c1`, the GI50 in [1] is 92.3 µM (inactive); in assay [2] it was > 100 µM (inactive); in assay [3], 66.7 µM (inactive); in [4], 35.7 µM (inactive); in [5] it was > 100 µM (inactive); in [6] it was 46.6 µM (inactive). Further, the GI50 in assay [7] is 78.2 µM (inactive); in assay [8] it was > 100 µM (inactive); in [9], 70.1 µM (inactive); in assay [20], 73.6 µM (inactive); in assay [10], 72.3 µM (inactive); in assay [11], > 100 µM (inactive). For the same molecule, the GI50 is 40.5 µM (inactive) in assay [12]; 53.1 µM in assay [13]; 52.4 µM (inactive) in [15]; > 100 µM (inactive) in assay [16]; > 100 µM (inactive) in [17]; > 100 µM (inactive) in assay [18].

As to `COc1ccc(NC(=O)N(C)CC2(O)CCC(C(C)(C)C)CC2)cc1` (centres undefined), the GI50 in assay [1] was 30.6 µM (inactive); in [2], > 100 µM (inactive); in assay [3], 56.4 µM (inactive); in assay [5], > 100 µM (inactive); in assay [7] it was 90.6 µM (inactive); in assay [19] it was 3.66 µM (inactive). Also, the GI50 in [8] was < 0.01 µM (active); in assay [20] it was 21 µM (inactive); in assay [10], 25.2 µM (inactive); in assay [11] it was 32.7 µM (inactive); in assay [13], 61.7 µM; in assay [14], 36.1 µM (inactive). The GI50 was 66.2 µM (inactive) in assay [15], 37 µM (inactive) in assay [16], 63.4 µM (inactive) in assay [17] and > 100 µM (inactive) in [18].
